According to patent publication US4691046A, “Butanedioic acid mono [(2-dimethylamino] ethyl ester)succinate” (Institut Organicheskoi Khimii Ordena Lenina I Ordena …, priority 1986, dated 1987):

Columns and labels:
Solubility = assay type: physicochemical
[1] = Blood glucose and organ glycogen upon predetermined (2.5 h) cold treatment (adaptation experiment); assay type: in vivo, mice; details: no adaptation, preparation 1 hour prior to the testing effect, 2.5 h at -14° C.
[2] = Toxicity upon intraperitoneal administration; details: mouse, in vivo, ip

CN(C)CCOC(=O)CCC(=O)O [Compound of this invention, butanedioic acid mono[(2-dimethylamino)ethyl ester]succinate]
solubility in acetone (Solubility; acetone): sparingly soluble | solubility in ethanol (Solubility; ethanol): sparingly soluble | solubility in water (Solubility; water): well soluble | Glycogen, heart ([1]; control 1.7 ± 0.2): 2.2 ± 3.4 mg/g | Glycogen, liver ([1]; control 6.7 ± 0.4): 7.1 ± 2.6 mg/g | Blood glucose ([1]; control 37 ± 6): 59 ± 2.6 mg. % | LD50 [2]: 3040 mg/kg
